From US12492188B2, “1H-benzo[D]imidazole derivatives as TLR9 inhibitors for the treatment of fibrosis” (BRISTOL-MYERS SQUIBB COMPANY, priority 2020, dated 2025) come the findings set out here.

Holding throughout (format): cell-based
The target in one test is T1, human TLR7 (Homo sapiens, UniProt Q9NYK1).
T1 construct: host or cells: HEK-Blue cells (HEK293-derived reporter line)
T1 sequence (Q9NYK1 27-1049): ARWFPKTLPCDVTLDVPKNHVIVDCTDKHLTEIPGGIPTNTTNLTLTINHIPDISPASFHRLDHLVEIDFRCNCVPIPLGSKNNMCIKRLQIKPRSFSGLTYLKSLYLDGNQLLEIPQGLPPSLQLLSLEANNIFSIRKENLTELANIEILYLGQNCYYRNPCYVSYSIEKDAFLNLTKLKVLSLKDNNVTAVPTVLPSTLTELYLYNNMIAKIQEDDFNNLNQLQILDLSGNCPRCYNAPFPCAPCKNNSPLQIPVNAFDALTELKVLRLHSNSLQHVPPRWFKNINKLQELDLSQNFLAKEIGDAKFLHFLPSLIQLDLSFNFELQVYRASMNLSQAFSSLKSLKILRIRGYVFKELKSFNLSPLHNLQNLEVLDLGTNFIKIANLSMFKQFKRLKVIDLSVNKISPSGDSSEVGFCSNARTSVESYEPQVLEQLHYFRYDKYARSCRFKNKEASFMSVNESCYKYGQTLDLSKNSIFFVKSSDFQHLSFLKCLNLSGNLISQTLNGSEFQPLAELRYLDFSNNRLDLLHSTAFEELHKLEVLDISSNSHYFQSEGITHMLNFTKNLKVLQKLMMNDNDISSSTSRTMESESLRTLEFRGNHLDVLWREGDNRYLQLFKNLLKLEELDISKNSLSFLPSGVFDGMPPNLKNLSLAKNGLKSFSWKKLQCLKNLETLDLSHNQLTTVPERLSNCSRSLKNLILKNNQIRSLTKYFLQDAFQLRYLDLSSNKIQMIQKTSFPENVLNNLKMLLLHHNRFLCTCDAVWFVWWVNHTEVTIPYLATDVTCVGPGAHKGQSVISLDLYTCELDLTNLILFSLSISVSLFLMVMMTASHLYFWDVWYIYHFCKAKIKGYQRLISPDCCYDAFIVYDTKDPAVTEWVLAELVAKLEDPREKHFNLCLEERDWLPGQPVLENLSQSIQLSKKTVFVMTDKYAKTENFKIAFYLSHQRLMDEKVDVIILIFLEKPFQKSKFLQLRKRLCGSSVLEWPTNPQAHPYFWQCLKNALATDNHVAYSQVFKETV
Description: TLR7 inhibition reporter assay (HEK-Blue cells, secreted embryonic alkaline phosphatase reporter). Conditions: HEK-Blue cells overexpressing human TLR7, stimulated with gardiquimod 7.5 μM; read-out: TLR 7 IC50. In a few lines: (§1)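 Inhibitors are tested in dose response (0.05 nM–50 μM) on HEK-Blue reporter cells expressing human TLR7, TLR8 or TLR9. After 30 min at room temperature, each line is stimulated with its own agonist (gardiquimod 7.5 μM, R848 15.9 μM or ODN2006 5 nM, final) and SEAP is measured 22 h later.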
(A reporter such as luciferase makes a cellular process visible.)

A further test addresses T2, human TLR9 (Homo sapiens, UniProt Q9NR96).
T2 construct: host or cells: HEK-Blue cells (HEK293-derived reporter line)
T2 sequence (Q9NR96 26-1032): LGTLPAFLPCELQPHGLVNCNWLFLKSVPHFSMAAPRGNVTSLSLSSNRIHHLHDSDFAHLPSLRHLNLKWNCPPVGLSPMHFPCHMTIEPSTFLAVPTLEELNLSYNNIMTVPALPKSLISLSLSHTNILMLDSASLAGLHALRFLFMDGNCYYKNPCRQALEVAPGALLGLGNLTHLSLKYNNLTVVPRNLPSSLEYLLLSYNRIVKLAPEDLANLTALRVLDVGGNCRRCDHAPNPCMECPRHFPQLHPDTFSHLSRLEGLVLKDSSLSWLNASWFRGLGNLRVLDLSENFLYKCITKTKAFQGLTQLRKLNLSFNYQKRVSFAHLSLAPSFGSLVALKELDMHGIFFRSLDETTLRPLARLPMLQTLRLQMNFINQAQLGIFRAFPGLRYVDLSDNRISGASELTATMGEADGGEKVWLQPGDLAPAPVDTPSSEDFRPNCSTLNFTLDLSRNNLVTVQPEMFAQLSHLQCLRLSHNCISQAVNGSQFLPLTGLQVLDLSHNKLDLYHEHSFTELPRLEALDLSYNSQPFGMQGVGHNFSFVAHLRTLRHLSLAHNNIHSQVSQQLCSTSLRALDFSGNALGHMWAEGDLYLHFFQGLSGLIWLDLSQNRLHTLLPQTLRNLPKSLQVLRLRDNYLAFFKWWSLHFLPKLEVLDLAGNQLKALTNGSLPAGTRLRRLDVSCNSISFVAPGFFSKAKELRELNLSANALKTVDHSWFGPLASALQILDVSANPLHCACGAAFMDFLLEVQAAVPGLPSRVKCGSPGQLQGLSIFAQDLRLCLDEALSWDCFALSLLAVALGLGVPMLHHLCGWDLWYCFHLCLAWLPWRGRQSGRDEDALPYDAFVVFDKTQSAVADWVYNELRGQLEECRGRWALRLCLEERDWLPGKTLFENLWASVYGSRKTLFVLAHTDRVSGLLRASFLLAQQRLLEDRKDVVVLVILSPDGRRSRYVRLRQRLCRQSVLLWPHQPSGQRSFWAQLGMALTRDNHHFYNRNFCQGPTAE
Nature of the test: TLR9 inhibition reporter assay (HEK-Blue cells, secreted embryonic alkaline phosphatase reporter). In a few lines: as §1

Another test concerns the target T3, human TLR8 (Homo sapiens, UniProt Q9NR97).
T3 construct: host or cells: HEK-Blue cells (HEK293-derived reporter line)
T3 sequence (Q9NR97 27-1041): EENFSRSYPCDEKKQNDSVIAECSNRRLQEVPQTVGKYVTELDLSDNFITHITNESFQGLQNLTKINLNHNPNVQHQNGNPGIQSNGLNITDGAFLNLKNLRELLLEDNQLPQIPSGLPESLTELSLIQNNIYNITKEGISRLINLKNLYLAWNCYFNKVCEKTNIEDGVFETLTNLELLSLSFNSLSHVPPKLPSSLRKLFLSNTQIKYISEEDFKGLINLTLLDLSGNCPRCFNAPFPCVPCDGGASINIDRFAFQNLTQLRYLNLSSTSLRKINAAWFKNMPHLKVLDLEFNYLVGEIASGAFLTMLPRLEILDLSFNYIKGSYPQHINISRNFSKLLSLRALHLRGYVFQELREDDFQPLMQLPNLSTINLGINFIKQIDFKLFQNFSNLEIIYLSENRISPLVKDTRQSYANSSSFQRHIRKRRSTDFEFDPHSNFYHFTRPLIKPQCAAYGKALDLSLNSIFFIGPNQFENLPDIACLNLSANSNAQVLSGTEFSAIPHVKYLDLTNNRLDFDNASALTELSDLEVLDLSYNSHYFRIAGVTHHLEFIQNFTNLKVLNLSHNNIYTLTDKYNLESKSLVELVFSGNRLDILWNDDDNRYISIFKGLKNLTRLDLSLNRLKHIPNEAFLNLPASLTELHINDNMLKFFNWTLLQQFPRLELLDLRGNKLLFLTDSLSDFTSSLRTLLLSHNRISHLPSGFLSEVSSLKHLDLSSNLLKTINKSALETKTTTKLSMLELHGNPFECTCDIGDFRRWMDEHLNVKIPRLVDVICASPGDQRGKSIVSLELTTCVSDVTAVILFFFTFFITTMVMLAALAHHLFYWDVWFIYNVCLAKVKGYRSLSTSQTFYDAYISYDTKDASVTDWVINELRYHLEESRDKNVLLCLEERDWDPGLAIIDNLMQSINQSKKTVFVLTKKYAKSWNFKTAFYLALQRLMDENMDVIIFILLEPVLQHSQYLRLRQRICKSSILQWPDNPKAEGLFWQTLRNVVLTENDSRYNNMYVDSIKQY
Description: TLR8 inhibition reporter assay (HEK-Blue cells, secreted embryonic alkaline phosphatase reporter). Conditions: HEK-Blue cells overexpressing human TLR8, stimulated with R848 15.9 μM; read-out: TLR 8 IC50. The essentials:
as §1

Where [1] appears, read: HEK-Blue cells overexpressing human TLR9, stimulated with ODN2006 5 nM, read-out: TLR 9 IC50.

Where two headings read alike, the source gives them in different places.

What is called IC50 is the concentration that inhibits the measured activity by half. In the case of `Cc1cc(C2CCN(C3CC4CCC(C3)N4CC3CCC3)CC2)cc2c1nc(-c1ccc(S(C)(=O)=O)cc1)n2C` (single isomer, unassigned) [Example 156, 6-(1-(8-(cyclobutylmethyl)-8-azabicyclo[3.2.1]octan-3-yl)piperidin-4-yl)-1,4-dimethyl-2-(4-(methylsulfonyl)phenyl)-1H-benzo[d]imidazole], the 50% inhibitory concentration (IC50) on human TLR7 was 8.9 µM; against human TLR9 it was 0.031 µM; at human TLR9 (setting [1]) it was 0.031 µM; at human TLR8, over 25 µM.

For the compound `Cc1cc(C2CCN(C3CC4CCC(C3)N4C3COC3)CC2)cc2c1nc(-c1ccc(S(C)(=O)=O)cc1)n2C` (single isomer, unassigned) [Example 158, 1,4-dimethyl-2-(4-(methylsulfonyl)phenyl)-6-(1-(8-(oxetan-3-yl)-8-azabicyclo[3.2.1]octan-3-yl)piperidin-4-yl)-1H-benzo[d]imidazole], the half-maximal inhibitory concentration (IC50) on human TLR7 is over 25 µM; against human TLR9 it was 0.16 µM; at human TLR9 (setting [1]), 1.61 µM; at human TLR8, over 25 µM.

Regarding `Cc1cc(C2CCN(C3CC4CCC(C3)N4C3COC3)CC2)cc2c1nc(-c1ccc(S(C)(=O)=O)cc1)n2C` (single isomer, unassigned) [Example 159, 1,4-dimethyl-2-(4-(methylsulfonyl)phenyl)-6-(1-(8-(oxetan-3-yl)-8-azabicyclo[3.2.1]octan-3-yl)piperidin-4-yl)-1H-benzo[d]imidazole], the IC50 is over 25 µM at human TLR7, 0.93 µM on human TLR9, 0.934 µM on human TLR9 (setting [1]) and over 25 µM on human TLR8.

On to `Cc1cc(C2CCN(C3CC4CCC(C3)N4C3CCOCC3)CC2)cc2c1nc(-c1ccc(S(C)(=O)=O)cc1)n2C` (single isomer, unassigned) [Example 160, 1,4-dimethyl-2-(4-(methylsulfonyl)phenyl)-6-(1-(8-(tetrahydro-2H-pyran-4-yl)-8-azabicyclo[3.2.1]octan-3-yl)piperidin-4-yl)-1H-benzo[d]imidazole], for which the concentration for half-maximal inhibition (IC50) on human TLR7 is 23.5 µM; against human TLR9, 0.052 µM; on human TLR9 (setting [1]), 0.052 µM; on human TLR8, over 25 µM.

Consider `Cc1cc(C2CCN(C3CC4CCC(C3)N4C3CCOCC3)CC2)cc2c1nc(-c1ccc(S(C)(=O)=O)cc1)n2C` (single isomer, unassigned) [Example 161, 1,4-dimethyl-2-(4-(methylsulfonyl)phenyl)-6-(1-(8-(tetrahydro-2H-pyran-4-yl)-8-azabicyclo[3.2.1]octan-3-yl)piperidin-4-yl)-1H-benzo[d]imidazole], for which the half-inhibitory concentration (IC50) on human TLR7 is over 25 µM; at human TLR9, 0.21 µM; at human TLR9 (setting [1]), 0.211 µM; on human TLR8 it was over 25 µM.

In the case of `COCCN1C2CCC1CC(N1CCC(c3cc(C)c4nc(-c5ccc(S(C)(=O)=O)cc5)n(C)c4c3)CC1)C2` (single isomer, unassigned) [Example 162, 6-(1-(8-(2-methoxyethyl)-8-azabicyclo[3.2.1]octan-3-yl)piperidin-4-yl)-1,4-dimethyl-2-(4-(methylsulfonyl)phenyl)-1H-benzo[d]imidazole], the concentration for half-maximal inhibition (IC50) on human TLR7 was 19.9 µM; on human TLR9, 0.061 µM; at human TLR9 (setting [1]) it was 0.061 µM; on human TLR8, over 25 µM.

With `COCCN1C2CCC1CC(N1CCC(c3cc(C)c4nc(-c5ccc(S(C)(=O)=O)cc5)n(C)c4c3)CC1)C2` (single isomer, unassigned) [Example 163, 6-(1-(8-(2-methoxyethyl)-8-azabicyclo[3.2.1]octan-3-yl)piperidin-4-yl)-1,4-dimethyl-2-(4-(methylsulfonyl)phenyl)-1H-benzo[d]imidazole], the half-maximal inhibitory concentration (IC50) at human TLR7 is 6.2 µM; on human TLR9, 0.6 µM; on human TLR9 (setting [1]), 0.599 µM; at human TLR8, over 25 µM.

For `COc1ccc(-c2nc3c(C)cc(C4CCN(C5CC6CCC(C5)N6C5COC5)CC4)cc3n2C)cc1OC` (single isomer, unassigned) [Example 164, 2-(3,4-dimethoxyphenyl)-1,4-dimethyl-6-(1-(8-(oxetan-3-yl)-8-azabicyclo[3.2.1]octan-3-yl)piperidin-4-yl)-1H-benzo[d]imidazole], the IC50 was over 25 µM on human TLR7, 0.11 µM against human TLR9, 0.109 µM on human TLR9 (setting [1]) and over 25 µM at human TLR8.

Consider `COc1ccc(-c2nc3c(C)cc(C4CCN(C5CC6CCC(C5)N6C5COC5)CC4)cc3n2C)cc1OC` (single isomer, unassigned) [Example 165, 2-(3,4-dimethoxyphenyl)-1,4-dimethyl-6-(1-(8-(oxetan-3-yl)-8-azabicyclo[3.2.1]octan-3-yl)piperidin-4-yl)-1H-benzo[d]imidazole], for which the IC50 at human TLR7 was over 25 µM; against human TLR9, 1.3 µM; at human TLR9 (setting [1]) it was 1.3 µM; on human TLR8, over 25 µM.
